In patent US20080114047A1 (priority 2003, published 2008):
Like-named read-outs stand apart in the source and are kept apart here.

Experiments:
[1] = test system: L. donovani axenic amastigotes; experiment: In vitro anti-leishmania activity (IC50 vs. L. donovani axenic amastigotes); assay type: cell-based; conditions: Leishmania donovani
[2] = test system: Trypanosoma brucei rhodesiense; experiment: Anti-protozoan data: T.b.r. IC50; assay type: cell-based; conditions: read-out: T.b.r. IC50
[3] = test system: Plasmodium falciparum; experiment: Anti-protozoan data: P. falcip. IC50; assay type: cell-based; conditions: read-out: P. falcip. IC50
[4] = in vitro
[5] = Tables VI(a), VI(c), read-out: Leishmania donovani IC50
[6] = axenic amastigotes, Tables I-V, read-out: IC50 vs. L. donovani

| SMILES | IC50 [1, 5] | IC50 [1, 6] | melting point | IC50 ([2]; Tables VI(a), VI(c)) | IC50 ([3]; Tables VI(a), VI(c)) | IC50 [4] | IC50 ([1]; read-out: L. Donovani IC50) | IC50 [2] | IC50 [3] |
| --- | --- | --- | --- | --- | --- | --- | --- | --- | --- |
| CC(C)NC(=N)c1ccc(OCCCCOc2cccc(-c3cc4ccc(C(=N)NC(C)C)cc4o3)c2)cc1.Cl.Cl [Compound 60, 2-(3-(4-(4-(N-Isopropylcarbamimidoyl)phenoxy)butoxy)phenyl)-N-isopropylbenzofuran-6-carboxamidine dihydrochloride] | 12.3 ± 0.09 µM | 12.3 ± 0.09 µM | 228 to 230 °C | 0.936 µM | 0.178 µM | 46.5 µM | – | – | – |
| c1cc(OCCCCCCOc2ccc(C3=NCCN3)cc2)cc(-c2cc3cc(C4=NCCN4)ccc3o2)c1 [Compound 43, 2-(2-(3-(6-(4-(4,5-Dihydro-1H-imidazol-2-yl)phenoxy)hexyloxy)phenyl)benzofuran-5-yl)-4,5-dihydro-1H-imidazole] | 1.92 ± 0.19 µM | – | – | 0.996 µM | 0.0494 µM | 2.46 µM | – | – | – |
| CC(C)NC(=N)c1ccc(OCCCCCCOc2cccc(-c3cc4cc(C(=N)NC(C)C)ccc4o3)c2)cc1.Cl.Cl [Compound 42, 2-(3-(6-(4-(N-Isopropylcarbamimidoyl)phenoxy)hexyloxy)phenyl)-N-isopropylbenzofuran-5-carboxamidine dihydrochloride] | 6.97 ± 1.39 µM | 6.97 ± 1.39 µM | 224 to 227 °C | 1.16 µM | 0.183 µM | 7.36 µM | – | – | – |
| COc1cc(C2=NCCN2)cc2cc(-c3ccc(C4=NCCN4)cc3)oc12 [Compound 177, 2-(4-(5-(4,5-dihydro-1H-imidazol-2-yl)-7-methoxybenzofuran-2-yl)phenyl)-4,5-dihydro-1H-imidazole] | – | 4.45 ± 0.36 µM | – | – | – | 19.9 µM | 4.45 ± 0.36 µM | 0.124 µM | 0.0323 µM |
| Cl.Cl.N=C(N)c1ccc(OCCCCCCOc2cccc(-c3cc4ccc(C(=N)N)cc4o3)c2)cc1 [Compound 65, 2-(3-(6-(4-Carbamimidoylphenoxy)hexyloxy)phenyl)benzofuran-6-carboxamidine dihydrochloride] | 23.6 ± 1.09 µM | 23.6 ± 1.09 µM | 268 to 271 °C | 1.22 µM | 0.479 µM | 4.33 µM | – | – | – |
| N=C(N)c1cccc(-c2cc3ccc(C(=N)N)cc3o2)c1 [Compound 169, 2-(3-carbamimidoylphenyl)benzofuran-6-carboxamidine] | – | 14.4 µM | – | – | – | 131 µM | 14.4 µM | 0.021 µM | 0.0035 µM |
| N=C(NO)c1ccc2oc(CCc3cc4cc(C(=N)NO)ccc4o3)cc2c1 [Compound 190, 2-(2-(5-(N-Hydroxycarbamimidoyl)benzofuran-2-yl)ethyl)-N-hydroxybenzofuran-5-carboxamidine] | – | – | – | 10.1 µM | 0.4 µM | > 199 µM | – | – | – |
| Cl.Cl.c1cc(OCCCCOc2ccc(C3=NCCN3)cc2)cc(-c2cc3cc(C4=NCCN4)ccc3o2)c1 [Compound 37, 2-(2-(3-(4-(4-(4,5-Dihydro-1H-imidazol-2-yl)phenoxy)butoxy)phenyl)benzofuran-5-yl)-4,5-dihydro-1H-imidazole dihydrochloride] | 11.7 ± 0.14 µM | 11.7 ± 0.14 µM | 190 to 195 °C | 1.17 µM | 0.0986 µM | 9.52 µM | – | – | – |
| Cl.Cl.N=C(N)c1ccc(OCCCCCOc2ccc(-c3cc4ccc(C(=N)N)cc4o3)cc2)cc1 [Compound 74, 2-(4-(5-(4-Carbamimidoylphenoxy)pentyloxy)phenyl)benzofuran-6-carboxamidine dihydrochloride] | 2.9 ± 0.14 µM | – | 285 °C (dec.) | 0.314 µM | 0.268 µM | 8.98 µM | – | – | – |
| Cl.Cl.N=C(N)c1ccc(OCCCCCCOc2ccc(-c3cc4ccc(C(=N)N)cc4o3)cc2)cc1 [Compound 77, 2-(4-(6-(4-Carbamimidoylphenoxy)hexyloxy)phenyl)benzofuran-6-carboxamidine dihydrochloride] | – | – | 310 to 311 °C | 0.416 µM | 0.28 µM | 8.02 µM | – | – | – |
| c1cc(C2=NCCN2)cc(-c2cc3ccc(C4=NCCN4)cc3o2)c1 [Compound 171, 2-(3-(6-(4,5-dihydro-1H-imidazol-2-yl)benzofuran-2-yl)phenyl)-4,5-dihydro-1H-imidazole] | – | > 100 µM | – | – | – | 12.8 µM | > 100 µM | 0.333 µM | 0.205 µM |
| CC(C)NC(=N)c1ccc(-c2cc3ccc(C(=N)NC(C)C)cc3o2)cc1 [Compound 173, 2-(4-(N-isopropylcarbamimidoyl)phenyl)-N-isopropylbenzofuran-6-carboxamidine] | – | 11.8 ± 1.28 µM | – | – | – | > 199 µM | 11.8 ± 1.28 µM | 0.148 µM | 0.0145 µM |
| CC(C)NC(=N)c1cccc(-c2cc3ccc(C(=N)NC(C)C)cc3o2)c1 [Compound 170, 2-(3-(N-isopropylcarbamimidoyl)phenyl)-N-isopropylbenzofuran-6-carboxamidine] | – | 24.4 ± 0.1 µM | – | – | – | > 200 µM | 24.4 ± 0.1 µM | 0.534 µM | 0.0586 µM |
| CC(C)NC(=N)c1ccc(OCCCCOc2cccc(-c3cc4cc(C(=N)NC(C)C)ccc4o3)c2)cc1.Cl.Cl [Compound 36, 2-(3-(4-(4-(N-Isopropylcarbamimidoyl)phenoxy)butoxy)phenyl)-N-isopropylbenzofuran-5-carboxamidine dihydrochloride] | 11.2 ± 0.04 µM | 11.2 ± 0.04 µM | 207 to 210 °C | 0.537 µM | 0.269 µM | 36.5 µM | – | – | – |
| COc1cc(C(=N)N)cc2cc(-c3ccc(C(=N)N)cc3)oc12 [Compound 175, 2-(4-carbamimidoylphenyl)-7-methoxybenzofuran-5-carboxamidine] | – | 3 ± 0.56 µM | – | – | – | 30.7 µM | 3 ± 0.56 µM | 0.006 µM | 0.0056 µM |
| c1cc(-c2cc3ccc(C4=NCCN4)cc3o2)ccc1C1=NCCN1 [Compound 174, 2-(4-(6-(4,5-dihydro-1H-imidazol-2-yl)benzofuran-2-yl)phenyl)-4,5-dihydro-1H-imidazole] | – | > 50 µM | – | – | – | 4.52 µM | > 50 µM | 0.319 µM | 0.109 µM |
| N=C(N)c1ccc(-c2cc3ccc(C(=N)N)cc3o2)cc1 [Compound 172, 2-(4-carbamimidoylphenyl)benzofuran-6-carboxamidine] | – | 3.13 ± 0.15 µM | – | – | – | 0.83 µM | 3.13 ± 0.15 µM | 0.0069 µM | 0.0031 µM |
| CC(C)NC(=N)c1ccc(OCCCCCCOc2cccc(-c3cc4ccc(C(=N)NC(C)C)cc4o3)c2)cc1.Cl.Cl [Compound 66, 2-(3-(6-(4-(N-Isopropylcarbamimidoyl)phenoxy)hexyloxy)phenyl)-N-isopropylbenzofuran-6-carboxamidine dihydrochloride] | 6.18 ± 0.06 µM | 6.18 ± 0.06 µM | 283 to 285 °C | 0.42 µM | 0.347 µM | 10.1 µM | – | – | – |
| N=C(NO)c1ccc(-c2cc3ccc(C(=N)NO)cc3o2)cc1 [Compound 181, 2-(4-(N-Hydroxycarbamimidoyl)phenyl)-N-hydroxybenzofuran-6-carboxamidine] | – | – | – | – | – | > 222 µM | > 100 µM | 3.1 µM | 0.609 µM |
| N=C(NO)c1cccc(-c2cc3ccc(C(=N)NO)cc3o2)c1 [Compound 180, 2-(3-(N-Hydroxycarbamimidoyl)phenyl)-N-hydroxybenzofuran-6-carboxamidine] | – | – | – | – | – | 13.8 µM | 68.5 ± 6.16 µM | 37.8 µM | 1.85 µM |
